Earlier results in PubChem BioAssay AID1259409 (Chemical Carcinogenesis Research Information System (CCRIS), 2018).

System: rodent chemically induced tumor inhibition, incidence and multiplicity
Experiment: CCRIS tumor inhibitor studies
Details: Species: MOUSE

## Cc1[nH]cnc1CSCCN=C(NC#N)N(C)N=O
Carcinogen: 7,12-DIMETHYLBENZ[A]ANTHRACENE, 57-97-6, Dose [Inhibitor]: 1 G/L IN DRINKING WATER AD LIBITUM BEGINNING 1 WK POST PROMOTER DOSE FOR DURATION OF STUDY (STUDY DURATION: 52 WK), Route [Inhibitor]: ORAL, Strain/Sex: SENCAR/FEMALE, Target Tissue: Type of Lesion: SKIN: CARCINOMA, Dose [Carcinogen]: 120 UG IN 0.2 ML ACETONE ONCE, Promoter: 12-O-TETRADECANOYLPHORBOL-13-ACETATE, 16561-29-8
  tumour outcome (control, treated, inhibition, significance): 24/30 (80%), 18/25 (72%), 10%, not calculated
Carcinogen: 7,12-DIMETHYLBENZ[A]ANTHRACENE, 57-97-6, Dose [Inhibitor]: 1 G/L IN DRINKING WATER AD LIBITUM BEGINNING 1 WK POST PROMOTER DOSE FOR DURATION OF STUDY (STUDY DURATION: 52 WK), Route [Inhibitor]: ORAL, Strain/Sex: SENCAR/FEMALE, Target Tissue: Type of Lesion: SKIN: KERATOACANTHOMA, Dose [Carcinogen]: 120 UG IN 0.2 ML ACETONE ONCE, Promoter: 12-O-TETRADECANOYLPHORBOL-13-ACETATE, 16561-29-8
  tumour outcome (control, treated, inhibition, significance): 16/30 (53%), 8/25 (32%), 40%, p<0.05
Carcinogen: 7,12-DIMETHYLBENZ[A]ANTHRACENE, 57-97-6, Dose [Inhibitor]: 1 MG/WK BEGINNING 1 WK POST FIRST PROMOTER DOSE FOR DURATION OF STUDY (STUDY DURATION: 52 WK), Route [Inhibitor]: DERMAL, Strain/Sex: SENCAR/FEMALE, Target Tissue: Type of Lesion: SKIN: CARCINOMA, Dose [Carcinogen]: 120 UG IN 0.2 ML ACETONE ONCE, Promoter: 12-O-TETRADECANOYLPHORBOL-13-ACETATE, 16561-29-8
  tumour outcome (control, treated, inhibition, significance): 24/30 (80%), 23/30 (77%), 4%, not calculated
Carcinogen: 7,12-DIMETHYLBENZ[A]ANTHRACENE, 57-97-6, Dose [Inhibitor]: 1 MG/WK BEGINNING 1 WK POST FIRST PROMOTER DOSE FOR DURATION OF STUDY (STUDY DURATION: 52 WK), Route [Inhibitor]: DERMAL, Strain/Sex: SENCAR/FEMALE, Target Tissue: Type of Lesion: SKIN: KERATOACANTHOMA, Dose [Carcinogen]: 120 UG IN 0.2 ML ACETONE ONCE, Promoter: 12-O-TETRADECANOYLPHORBOL-13-ACETATE, 16561-29-8
  tumour outcome (control, treated, inhibition, significance): 16/30 (53%), 15/30 (50%), 6%, not calculated
Carcinogen: 7,12-DIMETHYLBENZ[A]ANTHRACENE, 57-97-6, Dose [Inhibitor]: 1130 PPM IN DRINKING WATER BEGINNING 1 WK POST LAST CARCINOGEN DOSE (STUDY DURATION: 14 MO), Route [Inhibitor]: ORAL, Strain/Sex: B6D2F1/FEMALE, Target Tissue: Type of Lesion: LUNG: TUMOR, Dose [Carcinogen]: 1 MG IN OLIVE OIL 1/WK FOR 4 WK, Promoter: NONE USED
  tumour outcome (control, treated, inhibition, significance): 11/27 (41%), 13/23 (56%), -37%, not calculated
Carcinogen: 7,12-DIMETHYLBENZ[A]ANTHRACENE, 57-97-6, Dose [Inhibitor]: 1130 PPM IN DRINKING WATER BEGINNING 1 WK POST LAST CARCINOGEN DOSE (STUDY DURATION: 14 MO), Route [Inhibitor]: ORAL, Strain/Sex: B6D2F1/FEMALE, Target Tissue: Type of Lesion: LYMPHOID TISSUE: NEOPLASMS, Dose [Carcinogen]: 1 MG IN OLIVE OIL 1/WK FOR 4 WK, Promoter: NONE USE
  tumour outcome (control, treated, inhibition, significance): 12/29 (41%), 12/28 (43%), -4%, not calculated
Carcinogen: 7,12-DIMETHYLBENZ[A]ANTHRACENE, 57-97-6, Dose [Inhibitor]: 1130 PPM IN DRINKING WATER BEGINNING 1 WK POST LAST CARCINOGEN DOSE (STUDY DURATION: 14 MO), Route [Inhibitor]: ORAL, Strain/Sex: B6D2F1/FEMALE, Target Tissue: Type of Lesion: MAMMARY GLAND: TUMOR, Dose [Carcinogen]: 1 MG IN OLIVE OIL 1/WK FOR 4 WK, Promoter: NONE USED
  tumour outcome (control, treated, inhibition, significance): 7/29 (24%), 7/28 (25%), -4%, not calculated
Carcinogen: URETHANE, 51-79-6, Dose [Inhibitor]: 1000 PPM IN DRINKING WATER BEGINNING 10 WK POST LAST CARCINOGEN DOSE (STUDY DURATION: 14 MO), Route [Inhibitor]: ORAL, Strain/Sex: BALB/MALE, Target Tissue: Type of Lesion: LUNG: TUMOR, Dose [Carcinogen]: 1 G/KG 1/WK FOR 2 WK, Promoter: NONE USED
  tumour outcome (control, treated, inhibition, significance): 20/20 (100%), 17/17 (100%), 0%, not calculated
Carcinogen: URETHANE, 51-79-6, Dose [Inhibitor]: 1800 PPM IN DRINKING WATER BEGINNING 10 WK POST LAST CARCINOGEN DOSE (STUDY DURATION: 14 MO), Route [Inhibitor]: ORAL, Strain/Sex: BALB/MALE, Target Tissue: Type of Lesion: LUNG: TUMOR, Dose [Carcinogen]: 1 G/KG 1/WK FOR 2 WK, Promoter: NONE USED
  tumour outcome (control, treated, inhibition, significance): 20/20 (100%), 17/17 (100%), 0%, not calculated
